Measured values reported in PMC5430744 (Scientific Reports, 2017).
Where two headings read alike, the source gives them in different places.

Legend:
Smon0127 = molecular target: T1, Smon0127 (Streptobacillus moniliformis, UniProt D1AWE4); assay: UGL enzyme assay, decrease of absorbance at […] nm; format: biochemical
T1 construct: gene Smon_0127; recombinant Smon0127

Smon0123 = Smon0123 (Streptobacillus moniliformis, UniProt D1AWE0); assay: X-ray crystal structure; tryptophan fluorescence titration; DSF; format: binding; design: gene Smon_0123; Smon0123 (N-18/C-5) in the crystal; recombinant Smon0123 in solution
[1] = molecular target: T2, Smon0121-Smon0122(10xHis)/Smon0120-Smon0120 (Streptobacillus moniliformis, UniProt D1AWD7); settings: detergent-solubilised transporter
T2 construct: gene Smon_0120
T2 sequence (D1AWD7 entry or part of it): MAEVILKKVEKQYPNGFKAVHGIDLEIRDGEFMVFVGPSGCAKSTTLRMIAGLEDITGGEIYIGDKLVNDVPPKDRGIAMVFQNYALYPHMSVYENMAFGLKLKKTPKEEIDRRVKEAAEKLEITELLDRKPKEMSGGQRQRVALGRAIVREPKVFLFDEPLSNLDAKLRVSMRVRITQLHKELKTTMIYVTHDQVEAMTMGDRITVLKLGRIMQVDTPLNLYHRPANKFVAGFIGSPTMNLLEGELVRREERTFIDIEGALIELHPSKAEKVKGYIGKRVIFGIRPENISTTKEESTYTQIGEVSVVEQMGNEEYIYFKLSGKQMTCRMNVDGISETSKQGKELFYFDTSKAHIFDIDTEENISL
T2 sequence (D1AWD8 entry or part of it, further chain): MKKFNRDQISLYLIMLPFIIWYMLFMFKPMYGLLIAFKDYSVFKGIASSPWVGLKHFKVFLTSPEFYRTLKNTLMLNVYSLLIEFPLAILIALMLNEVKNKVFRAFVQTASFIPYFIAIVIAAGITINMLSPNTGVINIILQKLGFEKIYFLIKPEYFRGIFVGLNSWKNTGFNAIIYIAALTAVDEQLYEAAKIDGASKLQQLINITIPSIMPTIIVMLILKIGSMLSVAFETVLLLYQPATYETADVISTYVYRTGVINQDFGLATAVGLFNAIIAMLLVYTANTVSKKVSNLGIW
T2 sequence (D1AWD9 entry or part of it, further chain): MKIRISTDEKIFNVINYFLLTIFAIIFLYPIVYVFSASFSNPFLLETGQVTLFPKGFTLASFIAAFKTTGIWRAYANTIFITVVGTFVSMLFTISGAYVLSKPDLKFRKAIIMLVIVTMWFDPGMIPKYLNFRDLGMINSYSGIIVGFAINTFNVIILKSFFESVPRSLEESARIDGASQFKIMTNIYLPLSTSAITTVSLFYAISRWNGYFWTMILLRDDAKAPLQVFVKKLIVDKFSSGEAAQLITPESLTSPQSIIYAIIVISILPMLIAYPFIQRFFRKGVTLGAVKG

T1 sequence (D1AWE4 entry or part of it): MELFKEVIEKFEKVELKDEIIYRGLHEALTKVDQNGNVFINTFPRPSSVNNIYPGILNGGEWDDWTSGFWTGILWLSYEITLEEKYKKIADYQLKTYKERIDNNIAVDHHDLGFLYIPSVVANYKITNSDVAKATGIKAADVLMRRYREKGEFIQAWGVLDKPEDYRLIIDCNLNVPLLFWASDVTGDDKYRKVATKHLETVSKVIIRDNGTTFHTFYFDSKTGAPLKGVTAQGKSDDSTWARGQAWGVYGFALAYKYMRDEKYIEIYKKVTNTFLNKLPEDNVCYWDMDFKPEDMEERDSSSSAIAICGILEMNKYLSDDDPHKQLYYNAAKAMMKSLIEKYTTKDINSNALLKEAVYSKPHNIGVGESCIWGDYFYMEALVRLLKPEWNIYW
Sequence of Smon0123 (D1AWE0 entry or part of it): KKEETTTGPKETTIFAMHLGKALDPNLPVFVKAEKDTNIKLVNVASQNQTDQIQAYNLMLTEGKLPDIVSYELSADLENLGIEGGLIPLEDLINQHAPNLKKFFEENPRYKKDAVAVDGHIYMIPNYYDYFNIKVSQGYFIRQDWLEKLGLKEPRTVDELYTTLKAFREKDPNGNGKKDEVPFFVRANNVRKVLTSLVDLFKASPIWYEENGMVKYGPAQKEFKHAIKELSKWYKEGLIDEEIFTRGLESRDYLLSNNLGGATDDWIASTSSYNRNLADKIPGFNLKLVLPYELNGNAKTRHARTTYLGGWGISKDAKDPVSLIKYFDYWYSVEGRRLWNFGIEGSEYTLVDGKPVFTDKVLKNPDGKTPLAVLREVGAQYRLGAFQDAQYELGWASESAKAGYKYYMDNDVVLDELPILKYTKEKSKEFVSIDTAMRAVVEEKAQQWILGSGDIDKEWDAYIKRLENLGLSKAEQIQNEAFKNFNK

Row | Compound | UGL enzyme assay, decrease of absorbance at 235 nm (Smon0127) [units/mg] | Kd (Smon0123; read-out: Kd) [nM] | Kd (Smon0123) | phosphate release from ATP [1]
1 | CC(=O)N[C@H]1C(O)O[C@H](CO)[C@H](O)[C@@H]1O[C@@H]1OC(C(=O)O)=C[C@H](O)[C@H]1O (stereo partly shown) [CΔ0S] | 4.46 | 635 ± 122 |  | 
2 | CC(=O)N[C@H]1C(O)O[C@H](COS(=O)(=O)O)[C@H](O)[C@@H]1O[C@@H]1OC(C(=O)O)=C[C@H](O)[C@H]1O (stereo partly shown) [CΔ6S] | 0.272 |  | 5GX6 for Smon0123/C∆4S, 5GX7 for Smon0123/C∆6S | 
3 | CC(=O)N[C@H]1C(O)O[C@H](CO)[C@@H](O)[C@@H]1O[C@@H]1OC(C(=O)O)=C[C@H](O)[C@H]1O (stereo partly shown) [ΔHA] | 2.26 |  |  | 
4 | Nc1ncnc2c1ncn2[C@@H]1O[C@H](COP(=O)(O)OP(=O)(O)OP(=O)(O)O)[C@@H](O)[C@H]1O [ATP] |  |  |  | in the soluble form with detergents exhibited ATPase activity
5 | CC(=O)N[C@H]1C(O)O[C@H](CO)[C@H](OS(=O)(=O)O)[C@@H]1O[C@@H]1OC(C(=O)O)=C[C@H](O)[C@H]1O (stereo partly shown) [CΔ4S] | 0.342 |  |  | 
